In US20240383867A1, “CRYSTALLINE FORMS OF ISOXAZOLINE COMPOUND” (ELANCO US, INC., priority 2021, published 2024):

Legend:
[1] = assay type: physicochemical
Procedure: 53 mg of Sample 42 (Form A) and 47 mg of Sample (Form C) were suspended in 1 mL of an ethyl acetate/heptane (1:3) mixture at room temperature. After two hours of stirring at room temperature, one additional mL of the solvent mixture was added to the suspension. After another 1 hour of stirring, the suspension was seeded with Sample 42 and Sample 55 (about 10-20 mg). Further stirring was conducted at room temperature for one week. Then the suspension was filtered using a centrifugal unit filter (PTFE, 0.2 μm, 5000 rpm, room temperature).
The remaining substance from Sample 56 (approx. 42 mg) was further equilibrated in 0.5 mL of an ethyl acetate/heptane (1:3) mixture at room temperature After one month of stirring, the suspension was filtered using a centrifugal unit filter (PTFE, 0.2 μm, 5000 rpm, room temperature). […] The resulting Crystalline Form C of Example 27a is herein referred to as Sample 56A.
71 mg of Sample 42 (Form A) and 73 mg of Sample 55 (Form C) were suspended in 1 mL of an ethyl acetate/heptane (1:3) mixture at 60° C. After two hours of stirring at 60° C., one additional mL of the solvent mixture was added to the suspension. After another 1 hour of stirring, the suspension was seeded with Samples 42 and 55 (about 10-20 mg). Further stirring was conducted at 60° C. After four days of stirring, a solution with material on the glass side was obtained. Approx. […]

[2] = hygroscopicity testing via dynamic vapor sorption (DVS); assay type: physicochemical; settings: for hygroscopicity classification: DVS, class based on mass gain at 85% RH; for absorption of water (DVS): storage at 95% relative humidity for five hours
Procedure: Sorption isotherms were obtained using an SPS11-100n Sorptions Prufsystem from ProUmid (formerly Projekt Messtechnik). About 5 mg to about 20 mg of sample were placed into an aluminum sample plan on top of a microbalance and allowed to equilibrate at 50% relative humidity (RH) before starting the following applied measurement program. Humidity change rates of 5% per hour were used. The applied measurement program can be described as follows: • (1) 2 h at 50% RH • (2) 50→0% RH (5%/h); 5 h at 0% RH • (3) 0→95% RH (5%/h); 5 h at 95% RH • (4) 95→0% RH (5%/h); 5 h at 0% RH • (5) 0→95% RH (5%/h); 5 h at 95% RH • (6) 95→50% RH (5%/h); 2 h at 50% RH. The sample was recovered after completion of the isotherm and re-analyzed by XRPD. Hygroscopicity was classified based on the mass gain at 85% relative humidity (RH) relative to the initial mass as follows: deliquescent (sufficient water adsorbed to form a liquid), very hygroscopic (mass increase […]), hygroscopic (mass increase <15% but ≥2%), slightly hygroscopic (mass increase <2% but ≥0.2%), or non-hygroscopic (mass increase <0.2%).

[3] = solubility in common organic solvents; assay type: physicochemical
[4] = in vivo; cited from earlier work
[5] = test system: fleas (Ctenocephalides felis); settings: in vitro ingesting activity; cited from earlier work

SMILES: Cc1cc(C2=NO[C@@](c3cc(C(F)(F)F)cc(Cl)c3F)(C(F)(F)F)C2)ccc1C(=O)NCC(=O)NCC(F)(F)F [Crystalline Form A, 2-methyl-N-[2-oxo-2-(2,2,2-trifluoroethylamino)ethyl]-4-[(5S)-5-[3-chloro-2-fluoro-5-(trifluoromethyl)phenyl]-5-(trifluoromethyl)-4H-isoxazol-3-yl]benzamide]
- relative stability of Form A versus Form C [1]: stable form at room temperature
- hygroscopicity classification [2]: slightly hygroscopic (slightly hygroscopic (mass increase <2% but ≥0.2%))
- absorption of water (DVS) [2]: ~0.5%

SMILES: Cc1cc(C2=NO[C@@](c3cc(C(F)(F)F)cc(Cl)c3F)(C(F)(F)F)C2)ccc1C(=O)NCC(=O)NCC(F)(F)F [Crystalline Form B, 2-methyl-N-[2-oxo-2-(2,2,2-trifluoroethylamino)ethyl]-4-[(5S)-5-[3-chloro-2-fluoro-5-(trifluoromethyl)phenyl]-5-(trifluoromethyl)-4H-isoxazol-3-yl]benzamide]
- absorption of water (DVS) [2]: up to 1.2%

SMILES: Cc1cc(C2=NO[C@@](c3cc(C(F)(F)F)cc(Cl)c3F)(C(F)(F)F)C2)ccc1C(=O)NCC(=O)NCC(F)(F)F [Form C, 2-methyl-N-[2-oxo-2-(2,2,2-trifluoroethylamino)ethyl]-4-[(5S)-5-[3-chloro-2-fluoro-5-(trifluoromethyl)phenyl]-5-(trifluoromethyl)-4H-isoxazol-3-yl]benzamide]
- relative stability of Form A versus Form C [1]: stable form at 30° and above

SMILES: Cc1cc(C2=NO[C@@](c3cc(C(F)(F)F)cc(Cl)c3F)(C(F)(F)F)C2)ccc1C(=O)NCC(=O)NCC(F)(F)F [amorphous form of the compound of Formula 1] [2-methyl-N-[2-oxo-2-(2,2,2-trifluoroethylamino)ethyl]-4-[(5S)-5-[3-chloro-2-fluoro-5-(trifluoromethyl)phenyl]-5-(trifluoromethyl)-4H-isoxazol-3-yl]benzamide]
- hygroscopicity classification [2]: slightly hygroscopic (slightly hygroscopic (mass increase <2% but ≥0.2%))
- solid form after DVS measurement (XRPD) ([2]; XRPD after DVS): No crystallization occurred
- absorption of water (DVS) [2]: ~1.5%
- solubility in common organic solvents [3]: high solubility

SMILES: Cc1cc(C2=NO[C@@](c3cc(C(F)(F)F)cc(Cl)c3F)(C(F)(F)F)C2)ccc1C(=O)NCC(=O)NCC(F)(F)F [compound of Formula 1, 2-methyl-N-[2-oxo-2-(2,2,2-trifluoroethylamino)ethyl]-4-[(5S)-5-[3-chloro-2-fluoro-5-(trifluoromethyl)phenyl]-5-(trifluoromethyl)-4H-isoxazol-3-yl]benzamide]
- half-life [4]: 50 days
- EC50 [5]: < 1 ppm
